The values below come from publication PMC11997890, “In Vivo and In Vitro Pharmacokinetic Studies of a Dual Topoisomerase I/II Inhibitor” (ACS Pharmacology & Translational Science, 2025).

One series deals with T1, BCRP (ABCG2) (Homo sapiens, UniProt Q9UNQ0).
T1 construct: expressed in transfected cells; host or cells: MDCKII
The series is described as follows: Transporter inhibition, calcein-AM accumulation in MDCKII cells (BCRP overexpression). It is filed as cell-based. The settings on record: intracellular accumulation of calcein-AM. The protocol:
(§1) The inhibitory characteristics of P8-D6 on the classic efflux transporters P-GP and BCRP (ABCG2) were evaluated (Figure ).
(§2) A potential interaction of P8-D6 with the export protein P-GP (ABCB1) was evaluated in MDCK (P-GP overexpression) and MDCKII (BCRP overexpression) cells. P-GP interaction was determined by the measurement of calcein accumulation within the cells according to Bauer et al. Calcein-acetoxymethylester (calcein-AM) is a nonfluorescent, lipophilic and therefore highly cell-permeable ester. Once inside the cell, the ester bonds are rapidly cleaved by nonspecific esterases, generating highly fluorescent calcein, which is trapped inside the cell because of its hydrophilic nature. Because calcein-AM is a substrate for P-GP, inhibition of the transporter decreases efflux, which results in a higher intracellular fluorescence signal. […] Calcein-AM (MoBiTec, Göttingen, FRG) was added to a final concentration of 1 μM and incubated for 30 min at 37 °C. Afterward, the cells were immediately washed 3 times with ice-cold Krebs–Ringer buffer and lysed with 1% Triton X-100. […] Each determination was repeated 3 times in 2 experiments to ensure reproducibility. All fluorescence values were corrected by subtracting the background fluorescence.

A short description of series [1]: Plasma protein binding by ultrafiltration. Format: in vitro ADME. Further details: dose or concentration left out as unconfirmed. As to conditions: human, rat, human and rat plasma, 37 °C. The method, then: To examine the effect of the P8-D6 plasma protein binding on the in vivo bioavailability, human and rat plasma was spiked in vitro and incubated with P8-D6. By using ultrafiltration to separate free P8-D6 from the protein-bound fraction, a plasma protein binding of 99% (Figure A) was estimated. However, neither human α-1-microglobulin (3.06%) nor human serum albumin (0.91%) is responsible for binding. According to initial findings, γ-globulins (94.59%), human transferrin (90.43%), LDL (87.99%), human α2-HS glycoprotein (85.29%), and human fibrinogen (78.89%) lead to binding of P8-D6.
To examine the extent of plasma protein binding, 150 μL of blank samples of human plasma […] and rat plasma […], human albumin (1 mM, #A1653, Merck KGaA, Darmstadt); human α1-acid glycoprotein (1 mM; #G9885, Merck KGaA, Darmstadt); human α2-HS-glycoprotein (0.1 mM; #G0516, Merck KGaA, Darmstadt); human transferrin (0.2 mM; #T8158, Merck KGaA, Darmstadt); human fibrinogen (0.2 mM; #F3879, Merck KGaA, Darmstadt); LDL (0.2 mM; […]); and human γ-globulin (1 mM; #G4386, Merck KGaA, Darmstadt) were spiked with P8-D6 in the same final concentration as the protein and incubated in a shaking water bath at 37 °C for 120 min. Afterward, the unbound fraction of P8-D6 was separated by ultrafiltration (Vivaspin 500 10 000 MWCO filter). The sample preparation was performed according to plasma samples. […]

For series [2], the system named is kidney tissue (γH2AX, c-PARP, OGG1). The series can be described thus: In vivo tolerability and immunohistochemistry of tissue damage markers. More on the design: species or system Sprague–Dawley rats. From the text: Organs were immunostained with antibodies to detect reactive oxygen species, DNA damage, and caspase levels, not showing abnormalities in the liver, lungs, spleen, kidneys, and colon (Figure E).
OGG1, a marker for oxidative DNA damage produced by reactive oxygen species, was expressed weakly in the background and cytoplasm of the negative control samples of kidney tissue. […] No specific immunohistochemical reactions could be observed for the other organs.
Tissues were fixed with 4% formaldehyde and dehydrated with an ethanol series before embedding in paraffin. Tissue sections were cut using a microtome; the tissue sections were deparaffinized and rehydrated in water. Hematoxylin and eosin (H and E) staining was carried out on a Tissue Tek Prisma Plus autostainer (SAKURA). For immunohistochemistry, sections were stained with antibodies directed against γH2AX (Cell Signaling #9718, dilution 1:200, DNA-damage), OGG1 (Proteintech #15125-1-AP, dilution 1:200, DNA-damage), and c-PARP (Abcam #ab32064, dilution 1:200, DNA-damage). […] The immunoreaction was visualized with the Bond Polymer Refine Detection Kit (DS 9800; brown labeling; Novocastra; Leica Biosystems GmbH), resulting in a brown color and counterstained with hematoxylin. The IHC stainings were carried out on the autostainer BOND RX system (Leica Biosystems GmbH). The stained tissue sections were digitalized with a NanoZoomer S60 Digital slide scanner (Hamamatsu) at a 40× magnification objective and analyzed by board-certified pathologists. The samples from three mice were analyzed.

In a further series the target is T2, P-GP (ABCB1) (Homo sapiens, UniProt P08183).
T2 construct: expressed in transfected cells; host or cells: MDCK (Madin Darby canine kidney)
T2 sequence (P08183 whole entry, species assumed): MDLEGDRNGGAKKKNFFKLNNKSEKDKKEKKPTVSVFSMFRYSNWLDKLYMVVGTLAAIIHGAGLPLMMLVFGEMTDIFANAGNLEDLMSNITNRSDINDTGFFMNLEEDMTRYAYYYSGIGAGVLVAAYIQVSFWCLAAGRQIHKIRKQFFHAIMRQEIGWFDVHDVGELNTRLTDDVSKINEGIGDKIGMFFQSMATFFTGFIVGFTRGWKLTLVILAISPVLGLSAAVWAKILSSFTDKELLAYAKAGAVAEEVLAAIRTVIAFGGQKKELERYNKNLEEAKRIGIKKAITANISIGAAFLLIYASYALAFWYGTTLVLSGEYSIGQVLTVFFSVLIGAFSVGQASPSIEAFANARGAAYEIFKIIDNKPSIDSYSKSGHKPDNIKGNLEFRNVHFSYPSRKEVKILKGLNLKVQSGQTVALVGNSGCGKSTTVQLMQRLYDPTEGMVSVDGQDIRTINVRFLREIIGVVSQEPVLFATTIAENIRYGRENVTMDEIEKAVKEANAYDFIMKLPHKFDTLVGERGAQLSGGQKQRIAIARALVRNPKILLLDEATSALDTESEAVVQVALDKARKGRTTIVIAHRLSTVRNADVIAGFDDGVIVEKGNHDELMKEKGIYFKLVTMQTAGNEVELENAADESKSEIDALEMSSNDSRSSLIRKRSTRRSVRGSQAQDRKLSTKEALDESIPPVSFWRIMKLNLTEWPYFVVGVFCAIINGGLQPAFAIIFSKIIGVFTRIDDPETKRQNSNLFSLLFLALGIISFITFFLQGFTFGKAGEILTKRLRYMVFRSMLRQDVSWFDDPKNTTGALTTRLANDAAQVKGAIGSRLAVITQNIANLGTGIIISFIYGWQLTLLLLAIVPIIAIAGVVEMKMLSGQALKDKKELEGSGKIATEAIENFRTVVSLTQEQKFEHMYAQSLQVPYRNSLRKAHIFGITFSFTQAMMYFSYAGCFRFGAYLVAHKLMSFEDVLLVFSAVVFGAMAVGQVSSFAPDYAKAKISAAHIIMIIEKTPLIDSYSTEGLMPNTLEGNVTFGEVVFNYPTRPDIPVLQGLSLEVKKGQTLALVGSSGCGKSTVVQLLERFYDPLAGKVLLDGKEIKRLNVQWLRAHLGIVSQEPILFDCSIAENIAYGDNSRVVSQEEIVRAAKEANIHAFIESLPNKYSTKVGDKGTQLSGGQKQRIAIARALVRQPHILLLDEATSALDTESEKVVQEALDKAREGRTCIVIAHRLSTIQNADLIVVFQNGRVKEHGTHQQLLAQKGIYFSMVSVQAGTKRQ
The series is described as follows: Transporter inhibition, calcein-AM accumulation in MDCK cells (P-GP overexpression). Format: cell-based. The settings on record: intracellular accumulation of calcein-AM. The method, then: as §1, §2

The next series addresses T3, CYP2D6 (Homo sapiens, UniProt P10635).
T3 construct: host or cells: human liver microsomes (one value) / recombinant CYP enzyme (other value)
The series can be described thus: In vitro CYP inhibition, marker substrate dextromethorphan. Format: in vitro ADME. The protocol: (§3) To assess metabolizing enzyme-mediated drug interactions, P8-D6 was incubated with human liver (HLM) or recombinant CYP enzymes and the respective marker substrate according to the FDA (with the exception of using amitriptyline instead of S-mephenytoin). −
(§4) However, as some conversions were catalyzed by several enzymes, the conversion rates in HLM increased (e.g., bupropion and diclofenac).
(§5) To examine a possible in vitro CYP inhibition, the following CYP enzymes and marker substrates were investigated according to the FDA: , phenacetin (CYP1A2), bupropion (CYP2B6), amodiaquine (CYP2C8), diclofenac (CYP2C9), amitriptyline (CYP2C19), dextromethorphan (CYP2D6), testosterone (CYP3A4), and nifedipine (CYP3A4). Incubation was performed in a 0.2 mL reaction mix consisting of PBS buffer (pH 7.4), 1 mM marker substrate, 1 mM NADPH, and either 0.5 mg/mL recombinant CYP enzyme or human liver microsomes. P8-D6 was added for a final concentration of 0.5 μM, 1 μM, 5 μM, 10 μM, 25 μM, 50 μM, 100 μM, 500 μM, 1000 μM, and (in some cases) 5000 μM. Sample preparation was performed according to in vitro biotransformation.

The conditions of series [3]: mice; ref not given; cited from earlier work.
In the next series the target is T4, CYP2C9 (Homo sapiens, UniProt P11712).
T4 construct: host or cells: human liver microsomes (one value) / recombinant CYP enzyme (other value)
T4 sequence (P11712 whole entry): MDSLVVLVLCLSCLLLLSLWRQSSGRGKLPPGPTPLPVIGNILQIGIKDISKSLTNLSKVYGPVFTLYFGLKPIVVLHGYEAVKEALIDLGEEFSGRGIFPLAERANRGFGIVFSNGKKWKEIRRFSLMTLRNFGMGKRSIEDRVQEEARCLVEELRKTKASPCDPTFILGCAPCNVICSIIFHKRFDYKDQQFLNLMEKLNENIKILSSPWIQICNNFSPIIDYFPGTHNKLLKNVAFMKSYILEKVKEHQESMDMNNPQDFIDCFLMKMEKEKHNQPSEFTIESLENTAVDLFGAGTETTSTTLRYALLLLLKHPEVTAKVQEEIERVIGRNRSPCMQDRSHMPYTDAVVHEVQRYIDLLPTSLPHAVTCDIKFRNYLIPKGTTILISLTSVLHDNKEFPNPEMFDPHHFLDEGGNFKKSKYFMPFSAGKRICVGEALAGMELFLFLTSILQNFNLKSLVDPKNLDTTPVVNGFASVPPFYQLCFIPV
The series is described as follows: In vitro CYP inhibition, marker substrate diclofenac. Format: in vitro ADME. The method, then: as §3, §4, §5

T3 sequence (P10635 whole entry): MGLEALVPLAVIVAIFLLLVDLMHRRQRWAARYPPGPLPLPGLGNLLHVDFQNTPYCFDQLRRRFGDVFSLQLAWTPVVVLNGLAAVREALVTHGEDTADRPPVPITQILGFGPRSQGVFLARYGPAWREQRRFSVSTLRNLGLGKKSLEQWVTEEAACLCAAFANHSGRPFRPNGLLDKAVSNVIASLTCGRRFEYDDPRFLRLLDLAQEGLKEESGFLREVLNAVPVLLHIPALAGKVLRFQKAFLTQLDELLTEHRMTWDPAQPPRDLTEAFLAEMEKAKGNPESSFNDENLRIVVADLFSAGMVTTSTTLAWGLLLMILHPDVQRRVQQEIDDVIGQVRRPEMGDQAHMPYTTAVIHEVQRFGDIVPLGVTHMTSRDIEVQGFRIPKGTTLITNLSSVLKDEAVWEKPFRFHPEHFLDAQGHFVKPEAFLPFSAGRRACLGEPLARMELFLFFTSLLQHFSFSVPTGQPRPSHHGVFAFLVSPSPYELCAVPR
T1 sequence (Q9UNQ0 whole entry, species assumed): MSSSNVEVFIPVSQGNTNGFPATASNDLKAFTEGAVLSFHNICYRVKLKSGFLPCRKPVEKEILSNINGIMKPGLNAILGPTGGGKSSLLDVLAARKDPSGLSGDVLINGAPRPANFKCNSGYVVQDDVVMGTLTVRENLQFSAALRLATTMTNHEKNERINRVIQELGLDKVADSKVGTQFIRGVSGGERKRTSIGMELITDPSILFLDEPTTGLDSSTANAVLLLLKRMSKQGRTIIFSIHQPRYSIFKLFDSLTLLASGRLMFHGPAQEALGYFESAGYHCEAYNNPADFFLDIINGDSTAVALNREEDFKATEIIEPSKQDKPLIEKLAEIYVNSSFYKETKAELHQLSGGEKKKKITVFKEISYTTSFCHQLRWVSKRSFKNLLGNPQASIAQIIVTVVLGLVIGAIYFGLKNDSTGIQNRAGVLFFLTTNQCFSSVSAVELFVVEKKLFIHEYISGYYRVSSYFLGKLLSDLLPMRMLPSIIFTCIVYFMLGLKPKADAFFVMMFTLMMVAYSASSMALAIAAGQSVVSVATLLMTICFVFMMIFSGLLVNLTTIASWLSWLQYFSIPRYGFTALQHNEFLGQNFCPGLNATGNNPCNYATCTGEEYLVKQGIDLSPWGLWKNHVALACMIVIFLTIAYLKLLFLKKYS

On to `COc1cc(-c2cc3ccncc3c3nc(OCCN(C)C)c4cnccc4c23)cc(OC)c1OC` [P8-D6, 6-(N,N-dimethyl-2-aminoethoxy)-11-(3,4,5-trimethoxyphenyl)-pyrido[3,4-c][1,9]-phenanthroline], for which the IC50 at BCRP (ABCG2) was 16.3 µM; on P-GP (ABCB1), 20.6 µM; at CYP2D6 (HLM) it was 285 µM; on CYP2D6 (recombinant CYP isoenzyme), 166 µM; at CYP2C9 (HLM), 162 µM; at CYP2C9 (recombinant CYP isoenzyme), 71.4 µM. The fraction unbound at 120 min in series [1] was 0.01. Besides, the “OGG1 immunohistochemistry (oxidative DNA damage)” value in series [2] (kidney tissue) is recorded as “did not significantly differ from the negative control”. Besides, in series [2] (kidney tissue), the “γH2AX immunohistochemistry (marker for DNA damage)” value is “diffuse positivity”. Besides, the signs of toxicity result in series [2] (p.o. 50 mg/kg BW and i.v. 10 mg/kg BW) is “no signs of toxicity”. In addition, the “C-PARP immunohistochemistry (marker of apoptosis)” value in series [2] (vs positive and negative control) was “no significant difference”. Besides, the maximum tolerated dose in series [3] was 5 mg/kg BW.

As usually defined, the IC50 is the concentration that gives 50% inhibition. By fraction unbound is commonly meant free concentration divided by total concentration.
